From US8883771B2, “Bivalent inhibitors of IAP proteins and therapeutic methods using the same” (The Regents of the University of Michigan, priority 2012, dated 2014)

Columns and labels:
[1] = tested on: MDA-MB-231 breast cancer cell line; test: Inhibition of cell growth in MDA-MB-231 breast cancer cell line; format: cell-based, human; conditions: Homo sapiens
[2] = tested on: SK-OV-3 ovarian cancer cell line; test: Inhibition of cell growth in SK-OV-3 ovarian cancer cell line; format: cell-based, human; conditions: Homo sapiens
[3] = biological target: XIAP linker-BIR2-BIR3 (residues 120-356) (Homo sapiens (Human), UniProt P98170); test: Fluorescence polarization (FP) based competitive binding assay, XIAP linker-BIR2-BIR3; conditions: read-out: Binding Affinities IC50 (nM) XIAP Protein
Description: (§1) For cIAP-1 BIR3 and cIAP-2 BIR3 assays, a fluorescently labeled Smac mimetic (Smac-2F) was used as the fluorescent probe. The Kd values of Smac-2F to cIAP-1 BIR3 and cIAP-2 BIR3 were determined by monitoring the total fluorescence polarization of mixtures composed with the fluorescent probe at a fixed concentration and proteins with increasing concentrations up to full saturation. Fluorescence polarization values were measured using the Infinite M-1000 plate reader (Tecan U.S., Research Triangle Park, N.C.) in Microfluor 2 96-well, black, round-bottom plates (Thermo Scientific). To each well, 1 nM of SMAC-2F and increasing concentrations of protein were added to a final volume of 125 μl in the assay buffer (100 mM potassium phosphate, pH 7.5, 100 μg/ml bovine γ-globulin, 0.02% sodium azide, Invitrogen, with 4% DMSO). Plates were incubated at room temperature for 1-2 hours and mixed with gentle shaking to assure equilibrium. […] Equilibrium dissociation constants (Kd) were then calculated by fitting the sigmoidal dose-dependent FP increases as a function of protein concentrations using Graphpad Prism 5.0 software (Graphpad Software, San Diego, Calif.).
(§2) Mixtures of 5 μl of the tested compounds in DMSO and 120 μl of preincubated protein/tracer complex in the assay buffer (100 mM potassium phosphate, pH 7.5, 100 μg/ml bovine γ-globulin, 0.02% sodium azide, Invitrogen) were added into assay plates and incubated at room temperature for 2 hours with gentle shaking. Final concentrations of proteins and probes were 3 nM and 1 nM, 5 nM and 1 nM for assays for cIAP-1 BIR3 and cIAP-2 BIR3, respectively. […] FP values were measured as described above. IC50 values were determined by nonlinear regression fitting of the competition curves. The Ki values of competitive inhibitors were calculated using the derived equation described previously, based upon the measured IC50 values, the Kd values of the probe to different proteins, and the concentrations of the proteins and probes in the competitive assays.
The FP-based assay for XIAP linker-BIR2-BIR3 protein was performed with the same procedures. In this assay, a bivalent fluorescently tagged peptidic Smac mimetic (Smac-1F) was used as the fluorescent probe whose Kd value to XIAP linker-BIR2-BIR3 was determined similarly through the saturation experiments. 0.01% of Triton X-100 was added in the assay buffer to achieve stable fluorescence and polarization value of the dimeric fluorescent probe. Final protein and probe concentrations utilized in the competitive assay were 3 nM and 1 nM, respectively.

[4] = biological target: cIAP1-BIR3 (residues 253-363) (Homo sapiens (Human), UniProt Q13490); test: Fluorescence polarization (FP) based competitive binding assay, cIAP1-BIR3; conditions: Smac-2F probe, read-out: Binding Affinities IC50 (nM) cIAP1 Protein
Description: as §1, §2

[5] = biological target: cIAP-2 BIR3 (residues 238-349) (Homo sapiens (Human), UniProt Q13489); test: Fluorescence polarization (FP) based competitive binding assay, cIAP-2 BIR3; conditions: read-out: Binding Affinities IC50 (nM) cIAP2 Protein
Description: as §1, §2

[6] = MDA-MB-231, MDA-MB-231 breast cancer cell line
[7] = SK-OV-3, SK-OV-3 ovarian cancer cell line

SMILES: CN[C@@H](C)C(=O)N[C@H]1CN(C(=S)Nc2ccc(Cc3ccc(NC(=S)N4CC[C@H]5CC[C@@H](C(=O)NC(c6ccccc6)c6ccccc6)N5C(=O)[C@@H](NC(=O)[C@H](C)NC)C4)cc3)cc2)CC[C@H]2CCC(C(=O)NC(c3ccccc3)c3ccccc3)N2C1=O (stereo partly drawn) [Example 18]
- IC50 [1, 6]: < 100 nM

SMILES: CN[C@@H](C)C(=O)N[C@H]1CN(C(=O)NCc2cccc(CNC(=O)N3CC[C@H]4CC[C@@H](C(=O)N[C@H]5C[C@@H]5c5ccccc5)N4C(=O)[C@@H](NC(=O)[C@H](C)NC)C3)c2)CC[C@H]2CCC(C(=O)N[C@H]3C[C@@H]3c3ccccc3)N2C1=O (stereo partly drawn) [Example 38]
- IC50 [1, 6]: < 10000 nM
- IC50 [2, 7]: < 10000 nM

SMILES: CN[C@@H](C)C(=O)N[C@H]1CN(C(=O)NCCCCCCNC(=O)N2CC[C@H]3CC[C@@H](C(=O)NC4Cc5ccccc5C4)N3C(=O)[C@@H](NC(=O)[C@H](C)NC)C2)CC[C@H]2CCC(C(=O)NC3Cc4ccccc4C3)N2C1=O (stereo partly drawn) [Example 45]
- IC50 [1, 6]: < 1000 nM
- IC50 [2, 7]: < 1000 nM

SMILES: CN[C@@H](C)C(=O)N[C@H]1CN(C(=O)NCCCCCCNC(=O)N2CC[C@H]3CC[C@@H](C(=O)N[C@H]4CC[C@@H]4c4ccccc4)N3C(=O)[C@@H](NC(=O)[C@H](C)NC)C2)CC[C@H]2CCC(C(=O)N[C@H]3CC[C@@H]3c3ccccc3)N2C1=O (stereo partly drawn) [Example 47]
- IC50 ([1]; MDA-MB-231 breast cancer cell line): < 1000 nM
- IC50 ([2]; SK-OV-3 ovarian cancer cell line): < 1000 nM

SMILES: CN[C@@H](C)C(=O)N[C@H]1CN(S(=O)(=O)c2cccc(S(=O)(=O)N3CC[C@H]4CC[C@@H](C(=O)NC(c5ccccc5)c5ccccc5)N4C(=O)[C@@H](NC(=O)[C@H](C)NC)C3)c2)CC[C@H]2CCC(C(=O)NC(c3ccccc3)c3ccccc3)N2C1=O (stereo partly drawn) [Example 23]
- IC50 [1, 6]: < 100 nM
- IC50 [2, 7]: < 100 nM

SMILES: CN[C@@H](C)C(=O)N[C@H]1CN(C(=O)Oc2ccc(C(C)(C)c3ccc(OC(=O)N4CC[C@H]5CC[C@@H](C(=O)NC(c6ccccc6)c6ccccc6)N5C(=O)[C@@H](NC(=O)[C@H](C)NC)C4)cc3)cc2)CC[C@H]2CCC(C(=O)NC(c3ccccc3)c3ccccc3)N2C1=O (stereo partly drawn) [Example 22]
- IC50 [1, 6]: < 100 nM
- IC50 [2, 7]: < 1000 nM

SMILES: CN[C@@H](C)C(=O)N[C@H]1CN(C(=O)Nc2ccc(NC(=O)N3CC[C@H]4CC[C@@H](C(=O)N[C@H]5C[C@@H]5c5ccccc5F)N4C(=O)[C@@H](NC(=O)[C@H](C)NC)C3)cc2)CC[C@H]2CC[C@@H](C(=O)N[C@H]3C[C@@H]3c3ccccc3F)N2C1=O [Example 27]
- IC50 [1, 6]: < 5000 nM
- IC50 [2, 7]: < 5000 nM

SMILES: CN[C@@H](C)C(=O)N[C@H]1CN(C(=O)NCCCCCCNC(=O)N2CC[C@H]3CC[C@@H](C(=O)N[C@H]4C[C@@H](c5ccccc5)C4)N3C(=O)[C@@H](NC(=O)[C@H](C)NC)C2)CC[C@H]2CCC(C(=O)N[C@H]3C[C@@H](c4ccccc4)C3)N2C1=O (stereo partly drawn) [Example 50]
- IC50 [3]: < 1000 nM
- IC50 [4]: < 1000 nM
- IC50 [5]: < 1000 nM

SMILES: CN[C@@H](C)C(=O)N[C@H]1CN(C(=O)Nc2ccc(NC(=O)N3CC[C@H]4CC[C@@H](C(=O)N[C@H]5C[C@@H]5c5ccccc5)N4C(=O)[C@@H](NC(=O)[C@H](C)NC)C3)cc2)CC[C@H]2CC[C@@H](C(=O)N[C@H]3C[C@@H]3c3ccccc3)N2C1=O [Example 31]
- IC50 [1, 6]: < 1000 nM
- IC50 [2, 7]: < 1000 nM

SMILES: CN[C@@H](C)C(=O)N[C@H]1CN(C(=O)Nc2ccc(-c3ccc(NC(=O)N4CC[C@H]5CC[C@@H](C(=O)NC(c6ccccc6)c6ccccc6)N5C(=O)[C@@H](NC(=O)[C@H](C)NC)C4)c(C)c3)cc2C)CC[C@H]2CCC(C(=O)NC(c3ccccc3)c3ccccc3)N2C1=O (stereo partly drawn) [Example 15]
- IC50 [1, 6]: < 1000 nM
- IC50 [2, 7]: < 1000 nM

SMILES: CN[C@@H](C)C(=O)N[C@H]1CN(C(=O)Nc2ccc(CCc3ccc(NC(=O)N4CC[C@H]5CC[C@@H](C(=O)NC(c6ccccc6)c6ccccc6)N5C(=O)[C@@H](NC(=O)[C@H](C)NC)C4)cc3)cc2)CC[C@H]2CCC(C(=O)NC(c3ccccc3)c3ccccc3)N2C1=O (stereo partly drawn) [Example 17]
- IC50 [1, 6]: < 100 nM
